What all share (format): biochemical
For one assay, the target named is JAK3 (Homo sapiens (Human), UniProt P52333). As to the kind of experiment: Enzyme assay (Assay Example^a 1), JAK3.
The target of another assay is JAK1 (Homo sapiens (Human), UniProt P23458). As to the kind of experiment: Enzyme assay (Assay Example^a 1), JAK1. The following applies: ATP 100 μM.
The target in a further assay is Tyk2 (Homo sapiens (Human), UniProt P29597). The assay is described as follows: Enzyme assay (Assay Example^a 1), Tyk2. The following applies: ATP 100 μM.
Sequence of Tyk2 (P29597 whole entry): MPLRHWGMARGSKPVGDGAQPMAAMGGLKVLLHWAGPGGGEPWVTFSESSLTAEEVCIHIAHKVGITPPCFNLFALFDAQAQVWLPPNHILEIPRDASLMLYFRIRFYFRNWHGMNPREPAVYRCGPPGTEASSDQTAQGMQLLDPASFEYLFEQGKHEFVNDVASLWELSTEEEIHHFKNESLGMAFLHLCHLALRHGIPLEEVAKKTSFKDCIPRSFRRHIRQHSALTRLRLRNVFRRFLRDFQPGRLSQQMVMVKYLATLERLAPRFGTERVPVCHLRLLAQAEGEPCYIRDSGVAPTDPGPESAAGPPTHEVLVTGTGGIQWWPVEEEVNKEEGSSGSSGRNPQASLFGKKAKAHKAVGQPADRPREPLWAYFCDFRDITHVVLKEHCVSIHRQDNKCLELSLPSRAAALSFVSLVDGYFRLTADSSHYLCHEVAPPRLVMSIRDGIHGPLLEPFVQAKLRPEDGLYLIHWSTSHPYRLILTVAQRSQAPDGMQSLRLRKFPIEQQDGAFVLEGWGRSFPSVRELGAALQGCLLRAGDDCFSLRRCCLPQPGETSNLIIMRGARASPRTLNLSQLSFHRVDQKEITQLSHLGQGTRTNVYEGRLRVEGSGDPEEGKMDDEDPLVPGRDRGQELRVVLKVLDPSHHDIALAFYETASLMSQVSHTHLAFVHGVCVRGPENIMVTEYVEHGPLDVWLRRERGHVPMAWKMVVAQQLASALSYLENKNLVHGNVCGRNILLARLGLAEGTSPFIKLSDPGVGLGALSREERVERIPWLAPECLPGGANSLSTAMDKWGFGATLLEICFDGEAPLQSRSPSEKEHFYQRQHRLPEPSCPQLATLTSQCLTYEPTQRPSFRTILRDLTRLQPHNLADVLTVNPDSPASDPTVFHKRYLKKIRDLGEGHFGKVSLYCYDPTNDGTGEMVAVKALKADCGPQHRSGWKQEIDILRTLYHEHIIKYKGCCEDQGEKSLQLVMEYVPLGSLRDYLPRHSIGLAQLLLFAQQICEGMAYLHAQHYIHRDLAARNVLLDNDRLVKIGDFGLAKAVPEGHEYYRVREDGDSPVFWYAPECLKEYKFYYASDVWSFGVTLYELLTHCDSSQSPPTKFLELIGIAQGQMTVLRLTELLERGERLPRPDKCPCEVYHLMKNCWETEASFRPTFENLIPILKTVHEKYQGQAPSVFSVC

Structures are written as SMILES. Where two headings read alike, the source gives them in different places.

Sequence of JAK3 (P52333 whole entry): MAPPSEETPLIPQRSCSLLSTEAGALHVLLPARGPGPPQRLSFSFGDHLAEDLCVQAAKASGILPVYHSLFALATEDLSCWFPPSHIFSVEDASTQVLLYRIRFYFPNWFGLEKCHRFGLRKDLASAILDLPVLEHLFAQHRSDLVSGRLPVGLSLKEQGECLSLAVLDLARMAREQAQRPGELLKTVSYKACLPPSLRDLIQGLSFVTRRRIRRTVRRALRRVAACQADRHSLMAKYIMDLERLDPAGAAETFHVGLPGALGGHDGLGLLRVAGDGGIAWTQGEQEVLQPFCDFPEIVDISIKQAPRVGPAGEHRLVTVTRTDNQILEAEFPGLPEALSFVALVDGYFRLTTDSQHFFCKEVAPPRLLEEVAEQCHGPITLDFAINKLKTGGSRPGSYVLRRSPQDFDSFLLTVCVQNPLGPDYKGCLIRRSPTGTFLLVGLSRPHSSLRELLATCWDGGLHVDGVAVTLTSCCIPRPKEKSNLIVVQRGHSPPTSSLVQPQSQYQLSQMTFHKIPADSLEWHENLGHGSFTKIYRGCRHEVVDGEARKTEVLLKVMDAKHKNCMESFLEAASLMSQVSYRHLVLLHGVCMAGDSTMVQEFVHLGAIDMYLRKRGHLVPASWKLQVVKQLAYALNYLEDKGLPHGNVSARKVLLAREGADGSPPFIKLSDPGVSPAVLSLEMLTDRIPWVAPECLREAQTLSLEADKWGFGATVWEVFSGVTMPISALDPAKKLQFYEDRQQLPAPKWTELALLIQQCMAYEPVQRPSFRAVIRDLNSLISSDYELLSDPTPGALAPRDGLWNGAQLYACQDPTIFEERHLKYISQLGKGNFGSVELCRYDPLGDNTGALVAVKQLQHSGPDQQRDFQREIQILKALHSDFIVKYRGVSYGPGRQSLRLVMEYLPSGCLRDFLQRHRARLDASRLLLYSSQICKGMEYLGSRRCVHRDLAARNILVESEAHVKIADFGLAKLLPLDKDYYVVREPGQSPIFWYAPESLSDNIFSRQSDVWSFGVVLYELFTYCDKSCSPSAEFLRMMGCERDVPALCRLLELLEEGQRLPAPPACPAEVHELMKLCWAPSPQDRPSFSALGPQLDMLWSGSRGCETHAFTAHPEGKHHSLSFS

On JAK3 (ATP 100 μM, Table^a 154), `N#Cc1ccc(NC[C@H]2CC[C@H](c3nnn4cnc5[nH]ccc5c34)CC2)cc1` [compound 92] gave an IC50 above 1 µM.

Take `FC(F)(F)c1ccc(CN2CCC(c3nnn4cnc5[nH]ccc5c34)CC2)cn1` [compound 52]: half-maximal inhibition against JAK3 (IC50) required 0.041 µM. This counts as double-digit nanomolar.

With `Cc1ccc(CN2CCC(c3nnn4cnc5[nH]ccc5c34)CC2)s1` [compound 236, 1-{1-[(5-methylthiophen-2-yl)methyl]piperidin-4-yl}-7H-pyrrolo[3,2-e][1,2,3]triazolo[1,5-c]pyrimidine], the IC50 at JAK1 was 0.0068 µM; at JAK3 (ATP 100 μM), 0.45 µM; at Tyk2, above 1 µM.

Take `Fc1ccc(NC[C@H]2CC[C@H](c3nnn4cnc5[nH]ccc5c34)CC2)c(C(F)(F)F)c1` [compound 117]: the concentration for half-maximal inhibition (IC50) against JAK1 (Table^a 154) is 0.039 µM; against JAK3, above 1 µM.

In the case of `FC(F)CN[C@H]1CC[C@H](c2nnn3cnc4[nH]ccc4c23)CC1` [399b, trans-N-(2,2-difluoroethyl)-4-(7H-pyrrolo[3,2-e][1,2,3]triazolo[1,5-c]pyrimidin-1-yl)cyclohexanamine], the figures for the IC50 against JAK1, against JAK3 (ATP 100 μM) and against Tyk2 were 0.0075 µM, above 1 µM and 0.2 µM, respectively.

At JAK3 (ATP 100 μM, Table^a 154), `c1coc(CN2CCC(c3nnn4cnc5[nH]ccc5c34)CC2)c1` [compound 146] displayed an IC50 of 0.31 µM.

As to `COC[C@H]1CC[C@H](c2nnn3cnc4[nH]ccc4c23)CC1` [compound 62], the IC50 is 0.47 µM on JAK3 (ATP 100 μM, Table^a 154) and 0.14 µM against Tyk2 (Table^a 154).

Turning to `c1cncc(CN2CCCC(c3nnn4cnc5[nH]ccc5c34)C2)c1` (racemic) [compound 18], on Tyk2 (Table^a 154), the IC50 was above 1 µM.

`c1cc2c(ncn3nnc(C4CCN(Cc5csnn5)CC4)c23)[nH]1` [compound 152] showed an IC50 against JAK3 (ATP 100 μM, Table^a 154) of 0.032 µM.

For the compound `N#Cc1ccc(CNC[C@H]2CC[C@H](c3nnn4cnc5[nH]ccc5c34)CC2)cc1` [compound 93], the half-maximal inhibitory concentration (IC50) at JAK3 (ATP 100 μM, Table^a 154) was determined as 0.31 µM. Against the preceding compound, the IC50 is about 9.7-fold higher.

`Fc1ccccc1CN1CCC(c2nnn3cnc4[nH]ccc4c23)CC1` [compound 142] showed an IC50 at JAK3 (ATP 100 μM, Table^a 154) of 0.36 µM. The IC50 values of the last two compounds are within 1.5-fold of each other.

In the case of `FC(F)(F)c1ccc(CN2CCC(c3[nH]c(=S)n4cnc5[nH]ccc5c34)CC2)cc1` [compound 86], at JAK1 (Table^a 154), the 50% inhibitory concentration (IC50) was 0.02 µM.

The compound `c1cc2c(ncn3nnc(C4CCC(NCCN5CCOCC5)CC4)c23)[nH]1` (centres unmarked) [compound 126] came in with a 50% inhibitory concentration (IC50) against JAK3 (ATP 100 μM, Table^a 154) above 1 µM.

For the compound `Fc1ccc(CN2CCC(c3nnn4cnc5[nH]ccc5c34)CC2)cc1C(F)(F)F` [compound 154], the IC50 against JAK3 (ATP 100 μM, Table^a 154) worked out at 0.62 µM.

The compound `N#Cc1ccc(NC2CCC(c3nnn4cnc5[nH]ccc5c34)CC2)cc1` (centres unmarked) [compound 121] gave an IC50 on JAK3 of 0.46 µM.

Compound `N[C@H]1CC[C@H](c2nnn3cnc4[nH]ccc4c23)CC1` [compound 61] returned an IC50 against Tyk2 (Table^a 154) of 0.44 µM.

The compound `CC(C)(C)OC(=O)N1CCCC(c2nnn3cnc4[nH]ccc4c23)C1` (racemic) [compound 13] returned a half-maximal inhibitory concentration (IC50) on Tyk2 (Table^a 154) above 1 µM.

On to `c1ccc(CN2CCCC(c3nnn4cnc5[nH]ccc5c34)C2)cc1` (racemic) [compound 16], for which the IC50 is 0.28 µM against JAK1 (Table^a 154) and 5.3 µM at JAK3 (ATP 100 μM, Table^a 154).

Regarding `FC(F)(F)c1cccc(CN2CCC(c3nnn4cnc5[nH]ccc5c34)CC2)c1` [compound 39], at JAK3 (ATP 100 μM, Table^a 154), the IC50 was 0.53 µM. In other words, the sub-micromolar range.

Compound `c1cc2c(ncn3nnc(C4CCC(N5CCOCC5)CC4)c23)[nH]1` (centres unmarked) [compound 124] showed an IC50 at JAK3 (ATP 100 μM, Table^a 154) above 1 µM.

Regarding `O=C(OCc1ccccc1)N1CCCC(c2ncn3cnc4[nH]ccc4c23)C1` (racemic) [compound 3], the IC50 at JAK1 came out at 0.057 µM; at JAK3 (ATP 100 μM), 1.4 µM.

As to `CC1CCN(C(=O)CC#N)CC1c1nnn2cnc3[nH]ccc3c12` (centres unmarked) [compound 12], the concentration for half-maximal inhibition (IC50) on JAK1 (Table^a 154) was found to be 0.021 µM; against Tyk2 (Table^a 154), 0.91 µM.

Take `OC(CNC[C@H]1CC[C@H](c2nnn3cnc4[nH]ccc4c23)CC1)c1ccccc1` (mixture of isomers) [compound 186, 2-({[trans-4-(7H-pyrrolo[3,2-e][1,2,3]triazolo[1,5-c]pyrimidin-1-yl)cyclohexyl]methyl}amino)-1-phenylethanol]: at Tyk2 (Table^a 154), the IC50 was determined as 0.044 µM.

Consider `CC(C)(C)OC(=O)N[C@H]1CC[C@H](c2nnn3cnc4[nH]ccc4c23)CC1` [compound 59], for which the IC50 on JAK3 (ATP 100 μM, Table^a 154) is above 1 µM; against Tyk2 (Table^a 154), above 1 µM.

Regarding `CO[C@H]1CC[C@H](c2nnn3cnc4[nH]ccc4c23)CC1` [compound 63], at JAK1 (Table^a 154), the 50% inhibitory concentration (IC50) worked out at 0.011 µM.

On to `c1ccc2sc(CN3CCC(c4nnn5cnc6[nH]ccc6c45)CC3)nc2c1` [compound 232, 2-{[4-(7H-pyrrolo[3,2-e][1,2,3]triazolo[1,5-c]pyrimidin-1-yl)piperidin-1-yl]methyl}benzo[d]thiazole], for which the IC50 on JAK3 (ATP 100 μM) is above 1 µM.

The compound `CC(=O)OC[C@H]1CC[C@H](c2nnn3cnc4[nH]ccc4c23)CC1` [compound 72] gave a half-maximal inhibitory concentration (IC50) against JAK3 (ATP 100 μM, Table^a 154) of 0.048 µM.

Turning to `O[C@H](CN[C@H]1CC[C@H](c2nnn3cnc4[nH]ccc4c23)CC1)c1ccccc1` [203b, (S)-2-{[trans-4-(7H-pyrrolo[3,2-e][1,2,3]triazolo[1,5-c]pyrimidin-1-yl)cyclohexyl]amino}-1-phenylethanol], the IC50 against Tyk2 (Table^a 154) came out at 0.33 µM.

The compound `CC(=O)SC[C@H]1CC[C@H](c2nnn3cnc4[nH]ccc4c23)CC1` [compound 71] registered an IC50 at JAK3 of 0.055 µM.

At JAK3 (ATP 100 μM, Table^a 154), `c1cc(CN2CCC(c3nnn4cnc5[nH]ccc5c34)CC2)[nH]n1` [compound 151] gave a half-inhibitory concentration (IC50) of 0.63 µM.

Turning to `Cc1cc(C#N)ccc1NC[C@H]1CC[C@H](c2nnn3cnc4[nH]ccc4c23)CC1` [compound 103], on JAK3, the IC50 is above 1 µM.

For `FC(F)(F)CN1CCC(c2nnn3cnc4[nH]ccc4c23)CC1` [compound 25], half-maximal inhibition at JAK3 (IC50) required 0.44 µM.

For the compound `CC(c1ccccc1)N1CCC(c2nnn3cnc4[nH]ccc4c23)CC1` (racemic) [compound 245, 1-[1-(1-phenylethyl)piperidin-4-yl]-7H-pyrrolo[3,2-e][1,2,3]triazolo[1,5-c]pyrimidine], the IC50 against JAK3 (ATP 100 μM) and against Tyk2 was above 1 µM in each case.

Take `Clc1ccc(CN2CCC(c3nnn4cnc5[nH]ccc5c34)CC2)cc1` [compound 54]: the concentration for half-maximal inhibition (IC50) at JAK3 came to 0.071 µM.

`c1cc2c(ncn3nnc([C@H]4CC[C@H](CN5CCOCC5)CC4)c23)[nH]1` [compound 91] had an IC50 against JAK3 (ATP 100 μM, Table^a 154) of 0.64 µM. In other words, the sub-micromolar range.

With `ClC[C@H]1CC[C@H](c2nnn3cnc4[nH]ccc4c23)CC1` [compound 75], on JAK3 (ATP 100 μM, Table^a 154), the half-inhibitory concentration (IC50) was found to be 0.032 µM.

`O[C@H]1CC[C@H](c2nnn3cnc4[nH]ccc4c23)CC1` [compound 81] registered a half-inhibitory concentration (IC50) against JAK3 of 0.64 µM.

Take `O=C1NOC[C@H]1NC[C@H]1CC[C@H](c2nnn3cnc4[nH]ccc4c23)CC1` [compound 288, (R)-4-({[trans-4-(7H-pyrrolo[3,2-e][1,2,3]triazolo[1,5-c]pyrimidin-1-yl)cyclohexyl]methyl}amino)isoxazolidin-3-one]: the figures for the half-inhibitory concentration (IC50) on JAK1 and against Tyk2 were 0.046 µM and 0.37 µM, respectively.

With `FC(F)(F)c1ccc(CN2CCCC(c3nnn4cnc5[nH]ccc5c34)C2)cc1` (racemic) [compound 23], on JAK1 (Table^a 154), inhibition was half-maximal at 0.55 µM (IC50). That is a sub-micromolar value.

`O=C(OCc1ccccc1)N1CCC(c2nnn3cnc4[nH]ccc4c23)C1` (racemic) [compound 211, Benzyl 3-(7H-pyrrolo[3,2-e][1,2,3]triazolo[1,5-c]pyrimidin-1-yl)pyrrolidine-1-carboxylate] gave an IC50 against JAK1 (Table^a 154) of 0.12 µM.

Regarding `Brc1ncc(CN2CCC(c3nnn4cnc5[nH]ccc5c34)CC2)s1` [compound 153], the IC50 at JAK3 (ATP 100 μM, Table^a 154) came out at 0.015 µM. That is a double-digit nanomolar value.

On JAK3 (ATP 100 μM, Table^a 154), `Cc1cc(NC(=O)N2CCC(c3nnn4cnc5[nH]ccc5c34)CC2)sn1` [compound 31] showed a half-inhibitory concentration (IC50) above 1 µM.

`N#Cc1ccc(N[C@H]2CC[C@H](c3nnn4cnc5[nH]ccc5c34)CC2)cc1` [134b] returned a concentration for half-maximal inhibition (IC50) on JAK3 of 0.66 µM.

For the compound `O=C(Nc1nncs1)N1CCC(c2nnn3cnc4[nH]ccc4c23)CC1` [compound 30], at JAK3 (ATP 100 μM, Table^a 154), half-maximal inhibition (IC50) was put at 0.48 µM. That is a sub-micromolar value.

Turning to `FC(F)(F)c1cc(CN2CCC(c3nnn4cnc5[nH]ccc5c34)CC2)cc(C(F)(F)F)c1` [compound 47], the figures for the half-inhibitory concentration (IC50) against JAK1 (Table^a 154) and against Tyk2 (Table^a 154) were 0.78 µM and above 1 µM, respectively.

For the compound `O[C@@H](CNC[C@H]1CC[C@H](c2nnn3cnc4[nH]ccc4c23)CC1)c1ccccc1` [compound 276, (R)-2-({[trans-4-(7H-pyrrolo[3,2-e][1,2,3]triazolo[1,5-c]pyrimidin-1-yl)cyclohexyl]methyl}amino)-1-phenylethanol], at Tyk2, the midpoint of inhibition, the IC50, lay at 0.032 µM. In other words, the double-digit nanomolar range.

For the compound `N#Cc1ccc(N[C@H]2CC[C@@H](c3nnn4cnc5[nH]ccc5c34)CC2)cc1` [134a], the IC50 at JAK3 turned out to be 1 µM.

As to `N#Cc1cccc(CN2CCC(c3nnn4cnc5[nH]ccc5c34)CC2)c1` [compound 35], the 50% inhibitory concentration (IC50) against JAK3 (ATP 100 μM, Table^a 154) was found to be 0.26 µM.

As to `O=C(Nc1nncs1)N1CCCC(c2nnn3cnc4[nH]ccc4c23)C1` (racemic) [compound 20], the figures for the IC50 against JAK1 (Table^a 154) and against Tyk2 (Table^a 154) were 0.019 µM and 0.42 µM, respectively.

Compound `O[C@@H](CN[C@H]1CC[C@H](c2nnn3cnc4[nH]ccc4c23)CC1)c1ccccc1` [204b, (R)-2-{[trans-4-(7H-pyrrolo[3,2-e][1,2,3]triazolo[1,5-c]pyrimidin-1-yl)cyclohexyl]amino)-1-phenylethanol] displayed a 50% inhibitory concentration (IC50) at Tyk2 (Table^a 154) of 0.35 µM.

In turn, `OC(CN[C@H]1CC[C@H](c2nnn3cnc4[nH]ccc4c23)CC1)c1ccccc1` (mixture of isomers) [202b, 2-{[trans-4-(7H-pyrrolo[3,2-e][1,2,3]triazolo[1,5-c]pyrimidin-1-yl)cyclohexyl]amino}-1-phenylethanol] displayed an IC50 against Tyk2 (Table^a 154) of 0.26 µM. This IC50 and that of the compound before are within 1.5-fold of each other.

Consider `O=C(OCc1ccccc1)N1CCC(c2[nH]c(=S)n3cnc4[nH]ccc4c23)CC1` [compound 85], for which, at JAK3 (ATP 100 μM, Table^a 154), the IC50 was above 1 µM.

On to `O[C@H](CNC[C@H]1CC[C@H](c2nnn3cnc4[nH]ccc4c23)CC1)c1ccccc1` [compound 277, (S)-2-({[trans-4-(7H-pyrrolo[3,2-e][1,2,3]triazolo[1,5-c]pyrimidin-1-yl)cyclohexyl]methyl}amino)-1-phenylethanol], for which, on Tyk2, half-maximal inhibition (IC50) was put at 0.05 µM.

At JAK1 (Table^a 154), `Fc1ccc(CNC[C@H]2CC[C@H](c3nnn4cnc5[nH]ccc5c34)CC2)cc1C(F)(F)F` [compound 112] registered a half-maximal inhibitory concentration (IC50) of 0.0049 µM.

On to `O[C@H]1CC[C@@H](c2nnn3cnc4[nH]ccc4c23)CC1` [compound 83], for which, on JAK3, inhibition was half-maximal at 0.28 µM (IC50).

As for `c1cc2c(ncn3nnc(C4CC5CCC4C5)c23)[nH]1` (centres unmarked) [compound 65], the 50% inhibitory concentration (IC50) was found to be 0.15 µM at JAK3 (ATP 100 μM, Table^a 154) and 0.025 µM against Tyk2 (Table^a 154).

One may read the IC50 as the concentration that inhibits the measured activity by half. Read a low IC50 as higher potency.
